Reference: PMC4763312, “Comparative study of curcumin and curcumin formulated in a solid dispersion: Evaluation of their antigenotoxic effects” (Genetics and Molecular Biology, 2015)

Tests used:
Assay type in all cases: in vivo, Wistar rats
[1] = Variation in body mass and relative mass of the kidney
Procedure: Male Wistar albino rats, at 5-6 weeks of age and weighing approximately 160 g were obtained from the Animal Facility of the Ribeirão Preto Campus of the University of São Paulo. The animals were divided into 12 groups of six for each treatment. The experimental protocols applied in this study were approved by the Local Ethics Committee for Animal Use (CEUA) of Ribeirão Preto, Brazil, Register No.08.1.1417.53.2. […] These were administered via gavage at 72 h, 48 h, 24h or 30 min before the intraperitoneal administration of saline solution or the antitumoral agent cDDP, which was used as a damage-inducing agent. The body weights of the rats were recorded daily. At 24 h after cDDP administration (5th day), the animals were euthanized for sample collection. […] The same animals were used in genotoxicity assays (micronucleus test and comet assay) and biochemical tests (GSH and TBARS), as well as for the expression analysis of the Tp53 gene.

kidney cells [2] = test: Alkaline comet assay, kidney cells
Procedure: (§1) These were administered via gavage at 72 h, 48 h, 24h or 30 min before the intraperitoneal administration of saline solution or the antitumoral agent cDDP, which was used as a damage-inducing agent. The body weights of the rats were recorded daily. At 24 h after cDDP administration (5th day), the animals were euthanized for sample collection. […] The same animals were used in genotoxicity assays (micronucleus test and comet assay) and biochemical tests (GSH and TBARS), as well as for the expression analysis of the Tp53 gene. The alkaline version of the comet assay was performed according to protocols proposed by [Singh et al. (1988)] and [Tice et al. (2000)], with minor modifications (the slides were stained with GelRed, 1:10,000, Biotium-USA). To check for possible cytotoxic effects of the treatments, cell viability was determined via the Trypan blue dye exclusion method. […] Following lysis, the slides were placed in a horizontal electrophoresis unit containing 300 mM NaOH and 1 mM EDTA (pH > 13) for 20 min at an electric field strength of 0.78 V/cm (25 V and 300 mA). The slides were neutralized and stained with Gel Red (1:10,000). A total of 100 nucleoids per animal (two slides of 50 nucleoids each) were analysed at a 400x magnification using a fluorescence microscope (Axiostar, Zeiss, Germany) equipped with a 515-560 nm excitation filter, a 590 nm barrier filter and an integrated digital camera. Tail intensity (% tail DNA) was evaluated using the Comet Assay IV software (Perceptive Instruments, Suffolk, UK).

[3] = system: thiobarbituric-acid-reactive substances (TBARS) in kidney tissue; test: TBARS level in the kidney; conditions: for TBARS: kidney
Procedure: These were administered via gavage at 72 h, 48 h, 24h or 30 min before the intraperitoneal administration of saline solution or the antitumoral agent cDDP, which was used as a damage-inducing agent. The body weights of the rats were recorded daily. At 24 h after cDDP administration (5th day), the animals were euthanized for sample collection. […] The same animals were used in genotoxicity assays (micronucleus test and comet assay) and biochemical tests (GSH and TBARS), as well as for the expression analysis of the Tp53 gene. TBARS measurements in kidney tissue were performed according to [Buege and Aust (1978)]. A 0.5 mL aliquot of the homogenate was added to 1 mL of thiobarbituric acid solution (containing 15% trichloroacetic acid and 0.25 M HCl) to a final concentration of […]. This mixture was warmed in a water bath for 15 min and centrifuged for 20 min at 180 x g. The absorbance of the supernatant was determined at 535 nm (UV-VisB582 Micronal spectrophotometer), and the results were expressed as nmol TBARS/mg protein. […] The quantification of total proteins was done at 650 nm (RayLeigh UV-1601 spectrophotometer) using Lowry’s method ([Hartree, 1972]).

Tp53 mRNA = test: Quantification of Tp53 mRNA in kidney tissue (RT-qPCR); conditions: 50 mg/kg b.w. together with cDDP 6 mg/kg b.w.
Procedure: These were administered via gavage at 72 h, 48 h, 24h or 30 min before the intraperitoneal administration of saline solution or the antitumoral agent cDDP, which was used as a damage-inducing agent. Total RNA was extracted from kidney tissue using the SV Total Isolation System kit (Promega, Madison, WI, USA), according the manufacturer's instructions. […] The extracted RNA was converted to cDNA using the SuperScriptTM III kit (Invitrogen, Carlsbad, CA, USA), and RT-qPCR was performed in a CFX96 Real-Time PCR Detection System (Bio-Rad, CA, USA) using the Bio-Rad Real-Time PCR system with ABsoluteTM QPCR SYBR1 Green Mix (Invitrogen, Carlsbad, CA, USA), where fluorescence detection was performed following each annealing/extension cycle. The following reference genes were tested for suitability: b-actin (b-actin-forward: […] reverse: […] (GAPDH-forward: […]-reverse: [NT] and […]-forward: […]-reverse [NT] Based on stability, we selected b-actin as the endogenous control gene for RT-qPCR. Gene-specific primers for Tp53 (Tp53-forward: [NT]; Tp53-reverse: […] Louis, MO, USA). RT-qPCR efficiencies for Tp53 and b-actin were satisfactory, and the relative expression of Tp53 mRNA was normalized to the amount of b-actin using the method of relative 2^-ΔΔCt quantification described by [Livak and Schmittgen (2001)].

[4] = Cell viability by Trypan blue dye exclusion, kidney cells; conditions: male, Wistar, rat, kidney cells, oral, % in relation to saline solution group
Procedure: (§2) These were administered via gavage at 72 h, 48 h, 24h or 30 min before the intraperitoneal administration of saline solution or the antitumoral agent cDDP, which was used as a damage-inducing agent. The alkaline version of the comet assay was performed according to protocols proposed by [Singh et al. (1988)] and [Tice et al. (2000)], with minor modifications (the slides were stained with GelRed, 1:10,000, Biotium-USA). To check for possible cytotoxic effects of the treatments, cell viability was determined via the Trypan blue dye exclusion method. […] Following lysis, the slides were placed in a horizontal electrophoresis unit containing 300 mM NaOH and 1 mM EDTA (pH > 13) for 20 min at an electric field strength of 0.78 V/cm (25 V and 300 mA). The slides were neutralized and stained with Gel Red (1:10,000). A total of 100 nucleoids per animal (two slides of 50 nucleoids each) were analysed at a 400x magnification using a fluorescence microscope (Axiostar, Zeiss, Germany) equipped with a 515-560 nm excitation filter, a 590 nm barrier filter and an integrated digital camera. Tail intensity (% tail DNA) was evaluated using the Comet Assay IV software (Perceptive Instruments, Suffolk, UK).

bone marrow erythrocytes = test: Micronucleus test in bone marrow
Procedure: These were administered via gavage at 72 h, 48 h, 24h or 30 min before the intraperitoneal administration of saline solution or the antitumoral agent cDDP, which was used as a damage-inducing agent. The body weights of the rats were recorded daily. At 24 h after cDDP administration (5th day), the animals were euthanized for sample collection. […] The same animals were used in genotoxicity assays (micronucleus test and comet assay) and biochemical tests (GSH and TBARS), as well as for the expression analysis of the Tp53 gene. The micronucleus test was performed according to the protocol described by [Schmid (1975)]. Bone marrow cells were harvested from rat femurs, mixed with fetal bovine serum, homogenized and centrifuged, and the pellet was resuspended for slide preparations. The slides were then fixed, stained with Giemsa solution and coded. Three slides were produced for each animal. Coded slides were scored under 1000X magnification using a light microscope (Zeiss).

peripheral blood cells [5] = test: Alkaline comet assay, peripheral blood cells
Procedure: as §1

[6] = Cell viability by Trypan blue dye exclusion, peripheral blood cells; conditions: male, Wistar, rat, peripheral blood cells, oral, % in relation to saline solution group
Procedure: as §2

[7] = system: reduced glutathione (GSH) in kidney tissue; test: GSH level in the kidney; conditions: for GSH: kidney
Procedure: These were administered via gavage at 72 h, 48 h, 24h or 30 min before the intraperitoneal administration of saline solution or the antitumoral agent cDDP, which was used as a damage-inducing agent. The body weights of the rats were recorded daily. At 24 h after cDDP administration (5th day), the animals were euthanized for sample collection. […] The same animals were used in genotoxicity assays (micronucleus test and comet assay) and biochemical tests (GSH and TBARS), as well as for the expression analysis of the Tp53 gene. GSH concentrations in kidney tissue were determined according to method described by [Sedlak and Lindsay (1968)]. […] A 2.0 mL volume of Tris-EDTA buffer (0.2 M, pH 8.9) and 0.1 mL of 5,5 ‘-dithio-bis-2-nitrobenzoic acid (DTNB) in 0.01 M methanol were added to a 0.5 mL aliquot of the supernatant. The samples were maintained at room temperature for 15 min and then read at 412 nm (RayLeigh UV-1601 spectrophotometer). Standard curves were prepared using α-cysteine, and results were expressed as nmol GSH/g protein. The quantification of total proteins was done at 650 nm (RayLeigh UV-1601 spectrophotometer) using Lowry’s method ([Hartree, 1972]).

kidney cells [8] = test: Cell viability by Trypan blue dye exclusion, kidney cells; conditions: % in relation to saline solution group; GLA gavage + cDDP 6 mg/kg b.w. i.p.
Procedure: as §2

peripheral blood cells [9] = test: Cell viability by Trypan blue dye exclusion, peripheral blood cells; conditions: % in relation to saline solution group; GLA gavage + cDDP 6 mg/kg b.w. i.p.
Procedure: as §2

[10] = 50 mg/kg b.w. gavage x4 + cDDP 6 mg/kg b.w. i.p.
[11] = 50 mg/kg b.w. gavage x4 + i.p. saline
[12] = 50 mg/kg b.w. gavage x4 + cDDP 6 mg/kg b.w. i.p., 24 h
[13] = GLA gavage + cDDP 6 mg/kg b.w. i.p.
[14] = GLA gavage + cDDP 6 mg/kg b.w. i.p., 24 h

Compound: COc1cc(C=CC(=O)CC(=O)C=Cc2ccc(O)c(OC)c2)ccc1O [CMN, 1,7-bis[4-hydroxy 3-methoxyphenyl]-1,6-heptadiene-3,5-dione]
- Body weight variation, interval 2 (day 4 to 5) [1, 10]: 0.1 ± 2.5 g
- Kidney/body weight [1, 10]: 0.90 ± 0.06%
- Body weight variation, interval 1 (days 1 to 4) ([1]; 50 mg/kg b.w. gavage x4 + cDDP 6 mg/kg b.w. i.p. group): 31.8 ± 4.7 g
- Body weight variation, interval 1 (days 1 to 4) [1, 11]: 31.7 ± 6.6 g
- Body weight variation, interval 2 (day 4 to 5) [1, 11]: 8.2 ± 2.4 g
- Kidney/body weight [1, 11]: 0.96 ± 0.05%
- Reduction of body weight gain triggered by cDDP (in words) ([1]; combined application with cDDP): did not alter the reduction of body weight gain
- % tail DNA, kidney (kidney cells [2]; [10]): 4.0 ± 0.8%
- % tail DNA, kidney (kidney cells [2]; [11]): 5.5 ± 2.8%
- Comet assay, in association with cDDP compared to cDDP-only group (in words) (kidney cells [2]; with cDDP 6 mg/kg b.w.): did not induce significant alterations
- TBARS concentration in renal tissue (in words) ([3]; administered alone): did not alter
- TBARS [3, 12]: 0.222 ± 0.064 nmol/mg protein
- TBARS [3, 11]: 0.236 ± 0.018 nmol/mg protein
- TBARS levels, administered together with cDDP (in words) ([3]; with cDDP 6 mg/kg b.w., p > 0.05 vs saline solution group): able to maintain the TBARS levels observed in the saline solution group
- Tp53 expression compared to saline solution group (Tp53 mRNA): up-regulated
- viability at 24 h [4, 10]: 88.5 ± 2.2%
- viability at 24 h [4, 11]: 89 ± 2.3%
- Frequency of micronucleated polychromatic erythrocytes, MNPCEs/1000 PCEs (bone marrow erythrocytes; [10]): 7.08 ± 3.04 ^# MNPCEs/1000 PCEs
- Frequency of micronucleated polychromatic erythrocytes, MNPCEs/1000 PCEs (bone marrow erythrocytes; [11]): 1.91 ± 1.27 MNPCEs/1000 PCEs
- Formation of cDDP-induced micronuclei (in words) (bone marrow erythrocytes; CMN SD 5, 25 and 50 mg/kg b.w., unmodified CMN 50 mg/kg b.w., p < 0.05): significantly reduced
- % tail DNA, peripheral blood (peripheral blood cells [5]; [10]): 2.1 ± 0.6%
- % tail DNA, peripheral blood (peripheral blood cells [5]; [11]): 3.2 ± 0.9%
- viability at 24 h [6, 10]: 99.2 ± 0.7%
- viability at 24 h [6, 11]: 98.7 ± 0.5%
- GSH concentration in renal tissue (in words) ([7]; administered alone): did not alter
- GSH [7, 12]: 17.0 ± 1.4 nmol/mg protein
- GSH [7, 11]: 14.4 ± 1.2 nmol/mg protein

Compound: [NH2][Pt]([NH2])([Cl])[Cl] [cDDP, Cisplatin]
- Body weight variation, interval 2 (day 4 to 5) [1, 13]: 0.8 ± 2.2 g
- Kidney/body weight [1, 13]: 1.02 ± 0.11%
- Body weight variation, interval 1 (days 1 to 4) ([1]; GLA gavage + cDDP 6 mg/kg b.w. i.p. group): 27.5 ± 6.1 g
- % tail DNA, kidney (kidney cells [2]; [13]): 3.8 ± 0.7 %
- TBARS [3, 14]: 0.286 ± 0.014 nmol/mg protein
- Cell viability, kidney (kidney cells [8]): 86.5 ± 3.1%
- Frequency of micronucleated polychromatic erythrocytes, MNPCEs/1000 PCEs (bone marrow erythrocytes; [13]): 12.75 ± 3.32 MNPCEs/1000 PCEs
- PCE/(PCE + NCE) ratio (bone marrow erythrocytes; in 500 erythrocytes, GLA gavage + cDDP 6 mg/kg b.w. i.p.): 44.8 ± 4.9%
- % tail DNA, peripheral blood (peripheral blood cells [5]; [13]): 2.2 ± 0.8%
- Cell viability, peripheral blood (peripheral blood cells [9]): 98.8 ± 0.7%
- GSH [7, 14]: 18.5 ± 0.6 nmol/mg protein
